{
  "source": "patent US20250049914A1",
  "about": "“STEROID ACID-PEPTIDE BASED INTRACELLULAR CARGO DELIVERY” (DEFENCE THERAPEUTICS INC., priority 2021, published 2025)",
  "key": {"[1]": {"tested_on": "mesenchymal stromal cells (MSCs)", "assay": "DQ OVA degradation/processing in MSCs, flow cytometry", "assay_type": "cell-based", "settings": "DQ OVA coincubated with conjugate, nine hours", "description": "To evaluate OVA degradation/processing, cells were incubated with 10 µg/mL DQ™ OVA (with or without steroid acid-peptide modification) at 37° C. 30 minutes later, cells were washed, and regular media was added. At the end of the indicated incubation time, cells were collected and washed with cold PBS containing 2% FBS. Fluorescence was monitored by analyzing the cells by flow cytometry.\nMesenchymal stromal cells (MSCs) were incubated with either unconjugated fluorescently labeled OVA-AF647 alone or mixed with 45 μM of CA-HnRPA1 NLS steroid acid-peptide for nine hours and then intracellular OVA-AF647 delivery was assessed by flow cytometry as described in Example 1. […] The experiment was repeated with DQ™ OVA as cargo to evaluate the intracellular fate of the cargo delivered upon coincubation with CA-HnRPA1 NLS, as described in Example 4."}, "cpMSCs [2]": {"tested_on": "cpMSCs", "assay": "OVA-AF647 internalization in cpMSCs, flow cytometry", "assay_type": "cell-based", "settings": "various molar ratios", "description": "For this experiment, a cross-presenting mesenchymal stromal cell line (cpMSC) was used as the antigen presenting cells, which were pulsed with the OVA cargo labelled with Alexa Fluor 647 (i.e., OVA^647)^TM. OVA^647 fluorescence was measured by flow cytometry. Different ratios of CA (NLS1 RPS17 [FIG. 16A]; NLS3 RPS17 [FIG. 16B]; and PQBP-1 [FIG. 16C] to antigen (CA: OVA=22:1, 12:1, 8:1, 4:1, and 2:1) were tested (hnRNPA1 M9 NLS at 2:1).\n(§1) To further dissect the effect of bile acid peptide conjugates on antigen presentation, antigen internalization and processing were evaluated. cpMSCs were pulsed with OVA-labelled with AF647 in the presence of various molar ratios of different bile acid peptide conjugates, NLS1-RPS17 [FIG. 16A]; NLS3 RPS17 [FIG. 16B]; PQBP-1 [FIG. 16C]; and hnRNPA1 M9 NLS [FIG. 6]) and fluorescence was assessed by flow cytometry. […] OVA processing was assessed by pulsing cpMSCs with DQ™-Ovalbumin (OVA-DQ) in the presence of the same bile acid peptide conjugates as in FIGS. 6 and 16."}, "cpMSCs [3]": {"tested_on": "cpMSCs", "assay": "OVA-DQ processing in cpMSCs, flow cytometry", "assay_type": "cell-based", "settings": "various molar ratios", "description": "For this experiment, a cross-presenting mesenchymal stromal cell line (cpMSC) was used as the antigen presenting cells, which were pulsed with DQ™ Ovalbumin (i.e., OVADQ). OVADQ fluorescence was measured by flow cytometry. Different ratios of CA (NLS1 RSP17 [FIG. 17A]; NLS3 RPS17 [FIG. 17B]; and PQBP-1 [FIG. 17C] to antigen (CA: OVA=22:1, 12:1, 8:1, 4:1, and 2:1) were tested (hnRNPA1 M9 NLS at 2:1).\nas §1"}, "WT MSCs": {"tested_on": "WT MSCs", "assay": "Antigen cross-presentation assay on wild-type MSCs with B3Z cells", "assay_type": "cell-based, mouse", "description": "In order to generate Bone marrow (BM)-derived mouse MSCs, the femurs of 6-8-week-old female Balb/c or C57BL/6 mice were isolated and flushed with Alpha Modification of Eagle's Medium (AMEM) supplemented with 10% FBS and 50 U/mL Penicillin-Streptomycin in a 10 cm cell culture dish, then incubated at 37° C. Two days later, non-adherent cells were removed and the media replaced every 3 to 4 days until plastic-adherent cells reached 80% confluency. The generated cells were detached using 0.05% trypsin and expanded until a uniform MSC population was obtained. The generated MSCs were validated for their innate phenotype by flow-cytometry for the expression of CD44, CD45, CD73, and CD90. The cells were frozen in liquid nitrogen until use.\nTo assess cross-presentation assay, 25×10^3 cells MSCs were seeded per well in 24-well plate then pulsed with steroid acid peptide-conjugated for 6 h admixed with OVA. At the end of the pulsing period, the cells were washed to remove excess antigen then 5×10^4 B3Z cells. The cells were incubated for 17-19 hours prior to their lysis and incubation for another 4-6 hours at 37° C. with a CPRG solution. The optical density signal was detected at wavelength 570 using a SynergyH1™ microplate reader (Biotek, Winooski, VT, United States).\nTo determine whether a similar effect occurs in wild type (WT) (i.e., non-engineered) MSCs, BM-derived MSCs (Example 1) were used instead in the same cross presentation assay with B3Z responder cells."}, "MSCs": {"tested_on": "MSCs", "assay": "Flow cytometry assessment of ROS production", "assay_type": "cell-based, mouse", "settings": "WT MSCs", "text": "Dp44mt was used as a positive control. […] For FIGS. 19A-19C, n=6/group with *P<0.05, **P<0.01 and ***P<0.001.\nNext, the mechanism involved in cross presentation enhancement of steroid acid-peptide conjugates was further dissected."}, "human WT MSCs": {"tested_on": "human WT MSCs", "assay": "OVA processing by human MSCs, flow cytometry", "assay_type": "cell-based", "settings": "CA-hnRNPA1-treated human MSCs"}},
  "note": "Where no end group is shown, it is not given here.",
  "data": [
    {"substance": "CA-hnRNPA1: cholic acid conjugated to hnRNPA1 M9 NLS peptide CSNFGPMKGGNFGGRSSGPY (SEQ ID NO: 4) (not fully specified (N-terminus); also: cholic acid conjugate, site not given here)", "values": [
      {"measurement": "DQ OVA fluorescence (intracellular degradation/processing)", "setting": "[1]; listed as CA-HnRPA1 NLS", "result": "sharp increase"},
      {"measurement": "DQ OVA fluorescence (intracellular degradation/processing)", "setting": "[1]; listed as CA-hnRPA1 M9 NLS", "result": "increased intracellular degradation/processing"},
      {"measurement": "OVA internalization (OVA-AF647 fluorescence)", "setting": "cpMSCs [2]", "result": "enhance OVA internalization"},
      {"measurement": "OVA processing (OVA-DQ fluorescence)", "setting": "cpMSCs [3]", "result": "enhance OVA processing"},
      {"measurement": "antigen cross-presentation with conjugate diluted in PBS or H2O", "setting": "WT MSCs; WT MSCs", "result": "enhancement"},
      {"measurement": "OVA cross presentation by WT MSCs (B3Z)", "setting": "WT MSCs; WT MSCs pulsed with OVA with or without conjugate", "result": "significantly enhanced"},
      {"measurement": "ROS production by MSCs", "setting": "MSCs", "result": "increase in ROS production"},
      {"measurement": "OVA processing by human MSCs", "setting": "human WT MSCs", "result": "increase of OVA processing"}
    ]}
  ]
}
